# Columns and labels:
# Assay type in all cases: cell-based
# [1] = system: Plasmodium falciparum, chloroquine-sensitive strain FCH5C2; assay: activity against P. falciparum in vitro, strain FCH5C2; details: chloroquine-sensitive strain FCH5C2, 48 h-72 h, read-out: IC50 (50% growth inhibition)
# Description: (§1) Test method for the determination of the activity against P. falciparum in vitro
# (§2) The preparations of the present invention were tested on intraerythrocytary stages of P. falciparum from asynchronous cultures according to the method of Desjardin et al. (Desjardins, R. E. et al: Quantitative assessment of antimalarial activity in vitro by a semiautomated microdilution technique. Antimicrob. Agents Chemother. 16, 710-718, (1979)).
# (§3) The culture medium consisted of RPMI 1640 with the addition of 25 mM HEPES, 25 mM NaHCO3, […] neomycin and 10% human serum (A^+). Human-A^+ erythrocytes were used as the P. falciparum host cells. The parasites were maintained at 37° C. in an atmosphere of 3% O2, 4% CO2, 93% N2 and at 95% relative humidity.
# (§4) In order to determine the activity, the preparations were dissolved in DMSO, pre-diluted in the culture medium to a suitable starting concentration and subsequently titrated-out into microtitre plates in the 2nd stage over 6-7 steps. After the addition of the parasite culture (0.7% parasitemia in 2.5% erythrocyte suspension), the test plates were incubated under the conditions given above for 48 h-72 h. The parasite growth in the different preparation concentrations was determined using [G-^3 H]-hypoxanthin incorporation compared to untreated control cultures on the same test plates. The 50% growth inhibition (IC50) was calculated according to logit regression analysis from the resulting dosage-activity curve.
# (§5) The preparations were tested on at least one chloroquine-resistant and one chloroquine-sensitive P. falciparum strain. Additional sensitive and resistant strains were also included for further characterization.
# (§6) Table 1 below contains the IC50 values measured in vitro for the growth inhibition of chloroquine-sensitive and chloroquine-resistant strains of the human pathogenic Plasmodium falciparum.
# [2] = system: Plasmodium falciparum, chloroquine-sensitive strain NF54; assay: activity against P. falciparum in vitro, strain NF54; details: Plasmodium falciparum; chloroquine-sensitive strain NF54; 48 h-72 h; read-out: IC50 (50% growth inhibition)
# Description: as §1, §2, §3, §4, §5, §6
# [3] = system: Plasmodium falciparum, chloroquine-resistant strain RFCR3; assay: activity against P. falciparum in vitro, strain RFCR3; details: chloroquine-resistant strain RFCR3, 48 h-72 h, read-out: IC50 (50% growth inhibition)
# Description: as §1, §2, §3, §4, §5, §6
# [4] = system: Plasmodium falciparum, chloroquine-sensitive strain HB3; assay: activity against P. falciparum in vitro, strain HB3; details: chloroquine-sensitive strain HB3, 48 h-72 h, read-out: IC50 (50% growth inhibition)
# Description: as §1, §2, §3, §4, §5, §6
# [5] = system: Plasmodium falciparum, chloroquine-sensitive strain Ro7 3; assay: activity against P. falciparum in vitro, strain Ro7 3; details: chloroquine-sensitive strain Ro7 3, 48 h-72 h, read-out: IC50 (50% growth inhibition)
# Description: as §1, §2, §3, §4, §5, §6
# [6] = system: Plasmodium falciparum, chloroquine-sensitive strain RFMEF3; assay: activity against P. falciparum in vitro, strain RFMEF3; details: chloroquine-sensitive strain RFMEF3, 48 h-72 h, read-out: IC50 (50% growth inhibition)
# Description: as §1, §2, §3, §4, §5, §6
# [7] = system: Plasmodium falciparum, chloroquine-resistant strain 7G8; assay: activity against P. falciparum in vitro, strain 7G8; details: chloroquine-resistant strain 7G8, 48 h-72 h, read-out: IC50 (50% growth inhibition)
# Description: as §1, §2, §3, §4, §5, §6
# [8] = system: Plasmodium falciparum, chloroquine-resistant strain ItG2 F6; assay: activity against P. falciparum in vitro, strain ItG2 F6; details: chloroquine-resistant strain ItG2 F6, 48 h-72 h, read-out: IC50 (50% growth inhibition)
# Description: as §1, §2, §3, §4, §5, §6
# [9] = system: Plasmodium falciparum, chloroquine-resistant strain W2 Mef; assay: activity against P. falciparum in vitro, strain W2 Mef; details: 48 h-72 h, read-out: IC50 (50% growth inhibition)
# Description: as §1, §2, §3, §4, §5, §6
# [10] = system: Plasmodium falciparum, chloroquine-resistant strain W2; assay: activity against P. falciparum in vitro, strain W2; details: chloroquine-resistant strain W2, 48 h-72 h, read-out: IC50 (50% growth inhibition)
# Description: as §1, §2, §3, §4, §5, §6
# [11] = system: Plasmodium falciparum, chloroquine-resistant strain Indo; assay: activity against P. falciparum in vitro, strain Indo; details: chloroquine-resistant strain Indo, 48 h-72 h, read-out: IC50 (50% growth inhibition)
# Description: as §1, §2, §3, §4, §5, §6
# [12] = system: Plasmodium falciparum, chloroquine-resistant strain K1; assay: activity against P. falciparum in vitro, strain K1; details: Plasmodium falciparum; chloroquine-resistant strain K1; 48 h-72 h; read-out: IC50 (50% growth inhibition)
# Description: as §1, §2, §3, §4, §5, §6
Compound,IC50 [1],IC50 [2],IC50 [3],IC50 [4],IC50 [5],IC50 [6],IC50 [7],IC50 [8],IC50 [9],IC50 [10],IC50 [11],IC50 [12]
"CC(CN1CCCC1)Nc1ccnc2cc(Cl)ccc12 (racemic) [Example 3, (RS)-(7-Chloro-quinolin-4-yl)-(1-methyl-2-pyrrolidin-1-yl-ethyl)-amine]",7 ng/mL,7 ng/mL,8 ng/mL,5 ng/mL,4 ng/mL,7 ng/mL,7 ng/mL,5 ng/mL,11 ng/mL,7 ng/mL,6 ng/mL,12 ng/mL
"CC(CN1CCCCC1)Nc1ccnc2cc(Cl)ccc12 (racemic) [Example 4, (RS)-(7-Chloro-quinolin-4-yl)-(1-methyl-2-piperidin-1-yl-ethyl)-amine]",8 ng/mL,7 ng/mL,9 ng/mL,8 ng/mL,4 ng/mL,7 ng/mL,7 ng/mL,5 ng/mL,14 ng/mL,15 ng/mL,8 ng/mL,15 ng/mL
"CC1CCCN(CCNc2ccnc3cc(Cl)ccc23)C1 (racemic) [Example 23, (RS)-(7-Chloro-quinolin-4-yl)-[2-(3-methyl-piperidin-1-yl)-ethyl]-amine]",6 ng/mL,6 ng/mL,10 ng/mL,7 ng/mL,4 ng/mL,7 ng/mL,8 ng/mL,6 ng/mL,13 ng/mL,15 ng/mL,8 ng/mL,15 ng/mL
"CC1CCCCN1CCNc1ccnc2cc(Cl)ccc12 (racemic) [Example 26, (RS)-(7-Chloro-quinolin-4-yl)-[2-(2-methyl-piperidin-1-yl) -ethyl]-amine]",8 ng/mL,7 ng/mL,8 ng/mL,8 ng/mL,5 ng/mL,9 ng/mL,8 ng/mL,6 ng/mL,13 ng/mL,15 ng/mL,9 ng/mL,15 ng/mL
"CCC1CCCCN1CCNc1ccnc2cc(Cl)ccc12 (racemic) [Example 27, (RS)-(7-Chloro-quinolin-4-yl)-[2-(2-ethyl-piperidin-1-yl)-ethyl]amine]",10 ng/mL,8 ng/mL,15 ng/mL,9 ng/mL,3 ng/mL,7 ng/mL,7 ng/mL,7 ng/mL,14 ng/mL,19 ng/mL,9 ng/mL,18 ng/mL
"Clc1ccc2c(NCCN3CCCCC3)ccnc2c1 [Example 8, (7-Chloro-quinolin-4-yl)-(2-piperidin-1-yl-ethyl)-amine]",9 ng/mL,5 ng/mL,10 ng/mL,7 ng/mL,4 ng/mL,9 ng/mL,7 ng/mL,4 ng/mL,9 ng/mL,11 ng/mL,5 ng/mL,11 ng/mL
"CCN1CCCC1CNc1ccnc2cc(Cl)ccc12 (stereo not drawn) [Example 12, (7-Chloro-quinolin-4-yl)-(1-ethyl-pyrrolidin-2-yl-methyl)-amine]",9 ng/mL,6 ng/mL,15 ng/mL,7 ng/mL,7 ng/mL,8 ng/mL,15 ng/mL,8 ng/mL,9 ng/mL,15 ng/mL,12 ng/mL,10 ng/mL
"CC(C)(CN1CCCC1)Nc1ccnc2cc(Cl)ccc12 [Example 13, (7-Chloro-quinolin-4-yl)-(1,1-dimethyl-2-pyrrolidin-1-yl-ethyl)-amine]",28 ng/mL,30 ng/mL,58 ng/mL,38 ng/mL,30 ng/mL,27 ng/mL,39 ng/mL,25 ng/mL,41 ng/mL,34 ng/mL,40 ng/mL,47 ng/mL
"CC(C)(CN1CCCCC1)Nc1ccnc2cc(Cl)ccc12 [Example 14, (7-Chloro-quinolin-4-yl)-(1,1-dimethyl-2-piperidin-1-yl-ethyl)-amine]",8 ng/mL,9 ng/mL,8 ng/mL,9 ng/mL,4 ng/mL,6 ng/mL,7 ng/mL,6 ng/mL,14 ng/mL,20 ng/mL,10 ng/mL,21 ng/mL
"CN(C)CCNc1ccnc2cc(C(F)(F)F)ccc12 [Example 22, N1,N1 -Dimethyl-N2-(7trifluoromethyl-quinolin-4-yl)-ethane-1,2-diamine]",17 ng/mL,14 ng/mL,20 ng/mL,20 ng/mL,11 ng/mL,18 ng/mL,29 ng/mL,14 ng/mL,23 ng/mL,11 ng/mL,16 ng/mL,22 ng/mL
"CC1CCN(CCNc2ccnc3cc(Cl)ccc23)CC1 [Example 24, (7-Chloro-quinolin-4-yl)-[2-(4-methyl-piperidin-1-yl)-ethyl]-amine]",7 ng/mL,7 ng/mL,9 ng/mL,7 ng/mL,4 ng/mL,7 ng/mL,7 ng/mL,6 ng/mL,9 ng/mL,15 ng/mL,8 ng/mL,15 ng/mL
"CC1(C)CCCN(CCNc2ccnc3cc(Cl)ccc23)C1 [Example 25, (7-Chloro-quinolin-4-yl)-[2-(3,3-dimethyl-piperidin-1-yl)-ethyl]-amine]",8 ng/mL,8 ng/mL,14 ng/mL,10 ng/mL,5 ng/mL,8 ng/mL,11 ng/mL,8 ng/mL,16 ng/mL,26 ng/mL,15 ng/mL,22 ng/mL
"C[C@@H]1CCC[C@H](C)N1CCNc1ccnc2cc(Cl)ccc12 [Example 28, (2R,6S)-(7-Chloro-quinolin-4-yl)-[2-(2,6-dimethyl-piperidin-1-yl)-ethyl]-amine]",14 ng/mL,7 ng/mL,16 ng/mL,11 ng/mL,5 ng/mL,9 ng/mL,9 ng/mL,6 ng/mL,15 ng/mL,18 ng/mL,9 ng/mL,16 ng/mL
"CC1CC(C)CN(CCNc2ccnc3cc(Cl)ccc23)C1 (stereo not drawn) [Example 29, (7-Chloro-quinolin-4-yl)-[2-(3,5-dimethyl-piperidin-1-yl)-ethyl]-amine]",6 ng/mL,6 ng/mL,11 ng/mL,7 ng/mL,3 ng/mL,5 ng/mL,5 ng/mL,6 ng/mL,11 ng/mL,15 ng/mL,7 ng/mL,16 ng/mL
"CC1CCC(C)N1CCNc1ccnc2cc(Cl)ccc12 (stereo not drawn) [Example 30, (7-Chloro-quinolin-4-yl)-[2-(2,5-dimethyl-pyrrolidin-1-yl)-ethyl]-amine]",9 ng/mL,7 ng/mL,16 ng/mL,10 ng/mL,11 ng/mL,8 ng/mL,15 ng/mL,7 ng/mL,8 ng/mL,15 ng/mL,7 ng/mL,14 ng/mL

# From patent publication US5596002A, “Method of treating chloroquine-resistant malaria with aminoquinoline derivatives” (Hoffmann-La Roche Inc., priority 1993, dated 1997)
